# Patent US11352322B2, “Cyclopropyl-amide compounds as dual LSD1/HDAC inhibitors” (Jubilant Epicore LLC, priority 2016, dated 2022)
# Counter-ions that a name gives are not always drawn. Like-named read-outs stand apart in the source and are kept apart here.
# What was measured:
# [1] = In vivo PK studies in mice; parameters: species or system Male Balb/C mice; settings: for C0 / Vd / Cmax / clearance / half-life / bioavailability: male, Balb/C, mouse, plasma; for clearance: read-out: Cl IV
# Procedure: In Vivo PK Studies in Mice
# All the animal experiments were approved by Institutional Animal Ethical Committee (IAEC/JDC/2015/72). Male Balb/C mice (n=24) were procured from Vivo Biotech, Hyderabad, India. The animals were housed in Jubilant Biosys animal house facility in a temperature (22±2° C.) and humidity (30-70%) controlled room (15 air changes/hour) with a 12:12 h light:dark cycles, had free access to rodent feed (Altromin Spezialfutter GmbH & Co. KG., Im Seelenkamp 20, D-32791, Lage, Germany) and water for one week before using for experimental purpose. Following ˜4 h fast (during the fasting period animals had free access to water) animals were divided into two groups (n=12/group). […] Post-dosing serial blood samples (100 μL, sparse sampling was done and at each time point three mice were used for blood sampling) were collected using Micropipettes (Microcaps®; catalogue number: 1-000-0500) through tail vein into polypropylene tubes containing K2.EDTA solution as an anti-coagulant at 0.25, 0.5, 1, 2, 4, 8, 10 and 24 (for oral study) and 0.12, 0.25, 0.5, 1, 2, 4, 8 and 24 (for intravenous study). Plasma was harvested by centrifuging the blood using Biofuge (Hereaus, Germany) at 1760 g for 5 min and stored frozen at −80±10° C. until analysis. Animals were allowed to access feed 2 h post-dosing.
# Plasma concentration-time data of the compound was analyzed by non-compartmental method using Phoenix WinNonlin Version 6.3 (Pharsight Corporation, Mountain View, Calif.).
# [2] = Metabolic stability in liver microsomes, HLM; settings: 1 μM, NADPH
# Procedure: (§1) The microsomal suspension was prepared by adding liver microsomes to 100 mM potassium phosphate buffer (pH7.4) to give a final protein concentration of 0.5 mg/mL. The stock solution of NCE (10 mM in DMSO) was added to the microsomes to provide a final concentration of 1 μM. […] Samples were vortexed and centrifuged at 5,000 rpm for 10 min to remove proteins. Supernatant were analyzed on LC-MS/MS.
# [3] = Metabolic stability in liver microsomes, MLM; settings: 1 μM, NADPH
# Procedure: as §1
# [4] = molecular target: HDAC6 human recombinant enzyme (Homo sapiens (Human), UniProt Q9UBN7); assay: Histone Deacetylase Assay (BPS Biosciences), HDAC6; format: biochemical
# Excerpt: Histone Deacetylase Assay (BPS Biosciences)
# Histone deacetylase assay was done as per manufacturer's instructions.
# [5] = molecular target: LSD1 (Homo sapiens (Human), UniProt O60341); assay: TR-FRET Assay for LSD1; settings: read-out: LSD1 IC50
# Procedure: TR-FRET Assay for LSD1 (Perkin Elmer)
# Tranylcypromine (TCP), LSD1 inhibitor was procured from Selleckchem. […] Stop Solution containing 300 μM tranylcypromine in 1× LANCE Detection Buffer was added to the wells and incubated for 5 min at RT. Then, Detection mix containing 2 nM Eu-Ab and 50 nM ULight-Streptavidin in 1× LANCE Detection Buffer was prepared and added to the reaction mix. This mixture was incubated for 1 hour at room temperature.
# [6] = test system: MM1S; assay: Anticancer activity: Alamar Blue assay, MM1S; format: cell-based; settings: Homo sapiens, MM1.S, read-out: MM1S EC50
# [7] = IV 2 mg/kg, read-out: t1/2 IV (converted)
# [8] = PO 10 mg/kg, read-out: t1/2 PO (converted)
# Chain of HDAC6 human recombinant enzyme (Q9UBN7 whole entry): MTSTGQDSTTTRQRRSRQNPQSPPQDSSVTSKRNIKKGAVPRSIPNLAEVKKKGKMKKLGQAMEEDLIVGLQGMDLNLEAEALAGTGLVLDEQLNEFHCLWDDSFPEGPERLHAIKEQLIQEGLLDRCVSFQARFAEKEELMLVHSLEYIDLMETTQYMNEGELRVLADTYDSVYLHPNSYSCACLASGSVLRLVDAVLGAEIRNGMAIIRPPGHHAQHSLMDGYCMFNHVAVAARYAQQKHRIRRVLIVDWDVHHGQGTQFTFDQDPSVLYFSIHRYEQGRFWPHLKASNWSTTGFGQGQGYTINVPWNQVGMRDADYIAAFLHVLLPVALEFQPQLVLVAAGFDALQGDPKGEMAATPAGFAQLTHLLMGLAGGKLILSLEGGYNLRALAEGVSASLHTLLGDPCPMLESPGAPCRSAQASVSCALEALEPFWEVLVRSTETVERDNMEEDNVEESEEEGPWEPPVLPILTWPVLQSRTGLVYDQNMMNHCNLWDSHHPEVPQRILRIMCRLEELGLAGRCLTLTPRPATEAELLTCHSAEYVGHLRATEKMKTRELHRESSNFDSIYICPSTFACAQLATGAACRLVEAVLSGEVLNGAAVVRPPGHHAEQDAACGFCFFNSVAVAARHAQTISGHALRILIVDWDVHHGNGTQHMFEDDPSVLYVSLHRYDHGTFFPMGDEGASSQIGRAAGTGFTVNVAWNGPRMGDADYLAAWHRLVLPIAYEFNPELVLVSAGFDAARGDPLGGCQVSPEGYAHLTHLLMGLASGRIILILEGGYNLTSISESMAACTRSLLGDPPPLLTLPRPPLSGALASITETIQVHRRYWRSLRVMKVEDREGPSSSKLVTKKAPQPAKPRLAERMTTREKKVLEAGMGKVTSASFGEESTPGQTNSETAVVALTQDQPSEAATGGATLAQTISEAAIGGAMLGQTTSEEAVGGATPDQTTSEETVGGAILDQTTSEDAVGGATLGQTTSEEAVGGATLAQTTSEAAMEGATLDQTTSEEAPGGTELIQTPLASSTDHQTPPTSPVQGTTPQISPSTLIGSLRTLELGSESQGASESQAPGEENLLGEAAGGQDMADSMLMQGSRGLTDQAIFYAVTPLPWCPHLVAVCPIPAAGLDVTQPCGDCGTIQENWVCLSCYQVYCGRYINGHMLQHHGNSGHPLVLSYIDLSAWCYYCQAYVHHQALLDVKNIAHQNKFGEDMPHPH
EC50 ([6]; MM1S cells) [nM],SMILES,Metabolic stability HLM % remaining in 30 min [2],Metabolic stability MLM % remaining in 30 min [3],IC50 [4] [µM],IC50 [5] [nM],EC50 [6] [nM],other results
,"O=C(NO)c1ccc(CCCN2CCC(CNC3CC3c3ccc(-c4ccc(F)cc4)cc3)CC2)cc1 (centres unmarked) [Example 57, 4-(3-(4-(((2-(4′-fluoro-[1,1′-biphenyl]-4-yl)cyclopropyl)amino)methyl)piperidin-1-yl)propyl)-N-hydroxybenzamide TFA Salt]",92%,75%,0.059,21,,"AUC IV ([1]; IV 2 mg/kg): 169 ng/mL/h; AUC PO ([1]; PO 10 mg/kg): 677 ng/mL/h; C0 ([1]; IV 2 mg/kg): 260 ng/mL; Vd ([1]; IV 2 mg/kg): 28 L/kg; Cmax ([1]; IV 2 mg/kg, read-out: CMax IV): 254 ng/mL; clearance ([1]; IV 2 mg/kg): 190 mL/min/kg; half-life [1, 7]: 103 min; Cmax ([1]; PO 10 mg/kg, read-out: CMax PO): 217 ng/mL; half-life [1, 8]: 110 min; bioavailability ([1]; dose IV/PO 2/10 mg/kg): 80%"
49,"O=C(NO)c1ccc(CCCN2CCC(CNC3CC3c3ccc(-c4cncnc4)cc3)CC2)cc1 (centres unmarked) [Example 61, N-hydroxy-4-(3-(4-(((2-(4-(pyrimidin-5-yl)phenyl)cyclopropyl)amino)methyl)piperidin-1-yl)propyl)benzamide TFA Salt]",77%,66%,0.121,12,,"AUC IV ([1]; IV 10 mg/kg): 1287 ng/mL/h; AUC PO ([1]; PO 50 mg/kg): 1920 ng/mL/h; C0 ([1]; IV 10 mg/kg): 5340 ng/mL; Vd ([1]; IV 10 mg/kg): 30 L/kg; Cmax ([1]; IV 10 mg/kg, read-out: CMax IV): 2760 ng/mL; clearance ([1]; IV 10 mg/kg): 125 mL/min/kg; half-life ([1]; IV 10 mg/kg, read-out: t1/2 IV (converted)): 168 min; Cmax ([1]; PO 50 mg/kg, read-out: CMax PO): 771 ng/mL; half-life ([1]; PO 50 mg/kg, read-out: t1/2 PO (converted)): 88.8 min; bioavailability ([1]; dose IV/PO 10/50 mg/kg): 30%"
77,"O=C(NO)c1ccc(/C=C/C(=O)N2CCC(CN[C@@H]3C[C@H]3c3ccc(F)cc3)CC2)cc1 [Example 115A, 4-((E)-3-(4-((((1R,2S)-2-(4-fluorophenyl)cyclopropyl)amino)methyl)piperidin-1-yl)-3-oxoprop-1-en-1-yl)-N-hydroxybenzamide TFA Salt]",59%,90%,0.05,225,,"AUC IV ([1]; IV 2 mg/kg): 301 ng/mL/h; AUC PO ([1]; PO 10 mg/kg): 638 ng/mL/h; C0 ([1]; IV 2 mg/kg): 452 ng/mL; Vd ([1]; IV 2 mg/kg): 8 L/kg; Cmax ([1]; IV 2 mg/kg, read-out: CMax IV): 452 ng/mL; clearance ([1]; IV 2 mg/kg): 108 mL/min/kg; half-life [1, 7]: 52.2 min; Cmax ([1]; PO 10 mg/kg, read-out: CMax PO): 354 ng/mL; half-life [1, 8]: 167 min; bioavailability ([1]; dose IV/PO 2/10 mg/kg): 43%"
,"Nc1ccc(F)cc1NC(=O)c1ccc(CCCN2CCC(CNC3CC3c3ccc(F)cc3)CC2)cc1 (centres unmarked) [Example 132, N-(2-amino-5-fluorophenyl)-4-(3-(4-(((2-(4-fluorophenyl)cyclopropyl)amino)methyl)piperidin-1-yl)propyl)benzamide TFA Salt]",81%,80%,> 10,5,21,
,"Nc1ccccc1NC(=O)c1ccc(CCC(=O)N2CCC(CNC3CC3c3ccccc3)CC2)cc1 (centres unmarked) [Example 134, N-(2-aminophenyl)-4-(3-oxo-3-(4-(((2-phenylcyclopropyl)amino)methyl)piperidin-1-yl)propyl)benzamide TFA Salt]",10/10%,10/10%,> 10,42,174,
,"Nc1ccccc1NC(=O)c1ccc(CCCn2cnc(CNC3CC3c3ccccc3)c2)cc1 (centres unmarked) [Example 136, N-(2-aminophenyl)-4-(3-(4-(((2-phenylcyclopropyl)amino)methyl)-1H-imidazol-1-yl)propyl)benzamide TFA Salt]",4%,3%,> 10,570,174,
,"Nc1ccccc1NC(=O)c1ccc(CN2CCC(CN[C@@H]3C[C@H]3c3ccccc3)CC2)cc1 [Example 140, N-(2-aminophenyl)-4-((4-((((1R,2S)-2-phenylcyclopropyl)amino)methyl)piperidin-1-yl)methyl)benzamide TFA Salt]",85%,83%,> 10,2,2,
,"Cn1cc(-c2ccc(C3CC3NCC3CCN(Cc4ccc(C(=O)Nc5ccccc5N)cc4)CC3)cc2)ccc1=O (centres unmarked) [Example 141, N-(2-aminophenyl)-4-((4-(((2-(4-(1-methyl-6-oxo-1,6-dihydropyridin-3-yl)phenyl)cyclopropyl)amino)methyl)piperidin-1-yl)methyl)benzamide TFA Salt]",88%,75%,> 10,30,194,
,"Cc1noc(C)c1-c1ccc(C2CC2NCC2CCN(Cc3ccc(C(=O)Nc4ccccc4N)cc3)CC2)cc1 (centres unmarked) [Example 143, N-(2-aminophenyl)-4-((4-(((2-(4-(3,5-dimethylisoxazol-4-yl)phenyl)cyclopropyl)amino)methyl)piperidin-1-yl)methyl)benzamide TFA Salt]",37%,50%,> 10,37,102,
,"Nc1ccccc1NC(=O)c1ccc(CN2CCC(CNC3CC3c3ccc(-c4cncnc4)cc3)CC2)cc1 (centres unmarked) [Example 144, N-(2-aminophenyl)-4-((4-(((2-(4-(pyrimidin-5-yl)phenyl)cyclopropyl)amino)methyl)piperidin-1-yl)methyl)benzamide TFA Salt]",68%,52%,> 10,41,152,
,"Nc1ccccc1NC(=O)c1ccc(CC(=O)N2CCC(CNC3CC3c3ccc(F)cc3)CC2)cc1 (centres unmarked) [Example 147, N-(2-aminophenyl)-4-(2-(4-(((2-(4-fluorophenyl)cyclopropyl)amino)methyl)piperidin-1-yl)-2-oxoethyl)benzamide TFA Salt]",48%,< 5%,> 10,32,29,
40,"Nc1ccccc1NC(=O)c1ccc(OCCNC2CC2c2ccc(F)cc2)cc1 (centres unmarked) [Example 148, N-(2-aminophenyl)-4-(2-((2-(4-fluorophenyl)cyclopropyl)amino)ethoxy) benzamide TFA Salt]",46%,34%,> 10,24,,
411,Nc1ccccc1NC(=O)c1cnc(NCCN2CCC(CNC3CC3c3ccc(F)cc3)CC2)nc1 (centres unmarked) [Example 150],>95/>95%,>95/>95%,> 10,16,,
97,Nc1ccccc1NC(=O)c1ccc(/C=C/C(=O)N2CCC(CNC3CC3c3ccc(F)cc3)CC2)cc1 (centres unmarked) [Example 156],58%,49%,> 10,186,,
,"Nc1ccccc1NC(=O)c1ccc(/C=C/C(=O)N2CC(CNC3CC3c3ccc(F)cc3)C2)cc1 (centres unmarked) [Example 157, (E)-N-(2-aminophenyl)-4-(3-(3-(((2-(4-fluorophenyl)cyclopropyl)amino)methyl)azetidin-1-yl)-3-oxoprop-1-en-1-yl)benzamide TFA Salt]",53%,63%,> 10,58,167,
